Results published in patent publication US12304905B2, “Pharmaceutical salts of benzothiazol compounds, polymorphs and methods for preparation thereof” (priority 2019, dated 2025).

Legend:
Assay type in all cases: physicochemical
[1] = Dry grinding and wet granulation, physical stability in the milling process
Experimental: Dry grinding and wet granulation were carried out to test physical stability of (1S,2S)-2-fluoro-N-(6-(4-methylpyridin-3-yl)benzo[d]thiazol-2-yl)cyclopropane-1-carboxamide mono-hydrochloride in the milling process.
(§1) For dry grinding experiment, about 50 mg of (1S,2S)-2-fluoro-N-(6-(4-methylpyridin-3-yl)benzo[d]thiazol-2-yl)cyclopropane-1-carboxamide mono-hydrochloride was added into mortar and grinded by pestle for about 5 mins. Residual solids were then characterized by XRPD.
as §1, with “wet granulation” for “dry grinding”, “and then several drops of solvent EtOH were added until the solids were fully wetted. Wet solids were” for “and”, “mins manually and residual” for “mins. Residual”

[2] = Solubility tests of mono- and di-hydrochloride in bio-relevant media by HPLC; settings: for solubility at 17 h: 37 °C, thermodynamic from solid; for pH: after shaking 17 hrs at 37° C.
Experimental: Solubilities of mono-hydrochloride and di-hydrochloride salt forms in biorelevant media were tested at 37° C. Details of procedures were listed as below: About 15 mg obtained salts were weighed in 2 mL vials, respectively. Then 1.0 mL bio-relevant media (SGF, FaSSIF and FeSSIF) were added into the vials. All the vials were placed on the thermo-mixer and kept at 37° C. (700 r/min). After shaking at 37° C. for 17 hrs, clear solutions obtained by centrifugation were analyzed by HPLC after being diluted by ACN/water (1v/1v) for 10-50 times. And pH value of all systems were measured.

[3] = Solubility of mono-hydrochloride in solvents; settings: in MeOH, DMF, DMSO and water
[4] = Polymorph screening study of mono-hydrochloride (slurry, heating-cooling, slow evaporation, anti-solvent); settings: slow evaporation and anti-solvent methods, starting from Pattern I
Experimental: About 50 mg of (1S,2S)-2-fluoro-N-(6-(4-methylpyridin-3-yl)benzo[d]thiazol-2-yl)cyclopropane-1-carboxamide mono-hydrochloride was suspended into 1.0 mL selected pure or binary solvents in 2.0 mL glass vials. The suspensions were placed on the thermo-mixer with the speed of 700 r/m in at 25° C. and 50° C. After 4 days, slurries and suspensions were centrifuged (8,000 r/m in, 5 mins) and residual solids were dried in the vacuum oven at 35° C. for 4 hrs.
About 50 mg of (1S,2S)-2-fluoro-N-(6-(4-methylpyridin-3-yl)benzo[d]thiazol-2-yl)cyclopropane-1-carboxamide mono-hydrochloride was suspended into 1.0 mL selected pure or binary solvents in 2.0 mL glass vials at 50° C. stirring with the speed of 500 r/min. Then the suspensions were filtered through 0.45 μm filters into clean 2.0 mL glass vials and placed on the hot-plate stirring with 500 r/m in at 50° C. After stirring at 50° C. for 1.5 hrs, the system was cooled to 25° C. After stirring at 25° C. for 16 hrs, some solids came out from MeOH, EtOH/H2O (5/1, v/v) and acetone/H2O (5/1, v/v) systems, while very few solids came out from EtOH system. Then MeOH, EtOH/H2O (5/1, v/v) and acetone/H2O (5/1, v/v) systems were centrifuged at 10000 r/min for 5 mins and residual solids were dried in the vacuum oven at 35° C. for 3 hrs. Obtained dry solids were then characterized by XRPD. […]

crystallinity of residual solids (XRPD) ([1]; after dry grinding): decreased
crystalline form (XRPD) ([1]; after dry grinding or wet granulation process): not changed
solubility at 17 h ([2]; pH 1.88, simulated gastric fluid): > 13900 µg/mL
solubility at 17 h ([2]; pH 5.07, fessif): 130 µg/mL
solubility at 17 h ([2]; pH 6.62, fassif): 7840 µg/mL
pH ([2]; FaSSIF (pH = 6.62)): 2.01
pH ([2]; FeSSIF (pH = 5.07)): 3.83
pH ([2]; SGF (pH = 1.88)): 1.89
solubility [3]: relatively high solubility
XRPD pattern in polymorph screening [4]: No new XRPD pattern was found
SMILES: Cc1ccncc1-c1ccc2nc(NC(=O)[C@@H]3C[C@@H]3F)sc2c1.Cl [Mono-hydrochloride, (1S,2S)-2-fluoro-N-(6-(4-methylpyridin-3-yl)benzo[d]thiazol-2-yl)cyclopropane-1-carboxamide mono-hydrochloride]
